What was measured:
[1] = cited from earlier work
PARP-1 = PARP-1 (Homo sapiens, UniProt P09874); settings: cited from earlier work
[2] = cited from earlier work; remark: listed apart in the source
Sirtuins = settings: most Sirtuins; cited from earlier work
[3] = cited from earlier work; remark: listed apart in the source
Sirt1 = Sirt1 (Homo sapiens, UniProt Q96EB6); settings: cited from earlier work
[4] = estimated; cited from earlier work
[5] = no light and no contaminants in deionized/distilled H2O; cited from earlier work
Interleukin-6 = assay: LabCor monthly serum marker testing: Interleukin-6; type: in vivo, human; settings: person, oral twice daily, study month 3: NMN alone, 3rd month, baseline 1.3
Method: (§1) A person weighing 88 kg at the beginning of the treatment was treated with a regimine of category 1, category 2, and category 3 molecules as noted below.
(§2) The amounts of each composition were set so that by the subject drinking the full 500 mL a final dosage approximately 1.19×10^−4 moles NMN/kg body weight per dose, 2.91×10^−4 moles betaine/kg body weight per dose, 1.17×10^−5 moles of H2O2/kg of body weight per dose, and 1.51×10^−6 moles cf NaSH/kg of body weight per dose was given to the subject through drinking the 500 mL solution.
(§3) By taking two similar dosages per day, the sum of the two daily equal allotments was • Nicotinamide Mononucleotide (NMN) dosage−2.38×10^−4 moles/Kg body weight/day • The betaine dosage−5.82×10^−4 moles/Kg body weight/day • The Hydrogen Peroxide (H2O2) dosage−2.34×10^−5 moles/Kg body weight/day • The Sodium Hydrogen Sulfide (NaSH) dosage−3.02×10^−6 moles/Kg body weight/day
(§4) The subject self-administered the formulations orally through drinking the solution at approximately 7AM and 7 PM each day. These times were chosen because they approximated the subjects' biological clock peaks of NAD+ as determined by Ramsey K 2009. This had the effect of pulsing the ingredients into the body twice a day. approximately timed with the biological clock of the subject.
LabCor Inc. performed the marker testing using standard protocols on a monthly basis. […]

Inflammation Score = Inflammation Score (sum of the markers) and aging prediction after Arai 2015; type: in vivo, human; settings: person, baseline 5.17
From the text: Inflammation markers can be analyzed for aging including those markers found in the study by Arai in 2015. Aria found inflammation markers that were predictive of who would continue to live (life-span) and who would be physically and cognitively healthy (health-span). The markers used were CMV IgG, IL-6, TNF-alpha and CRP.
(§5) LabCor Inc. performed the marker testing using standard protocols on a monthly basis. Blood draw times ranged between 8:19 am and 8:54 am. Inflammatory measurements are correlated to the biological clock. LabCor tested levels of CMV IgG, C-Reactive Protein, Tumor Necrosis Factor-Alpha, and Interleukin-6 in Serum.
In the baseline condition for the subject, both C-reactive Protein (2.77 mg/L) and Interleukin-6 (1.3 pg/m14 measurements were above the “unrelated family” level (0.7 mg/l and 1.13 pg/mL) (Arai Y 2015, Table 1) as well as the “offspring” level (0.7 mg/l and 1.03 pg/mL) (Arai Y. 2015, Table 1) respectively. The […] subject of this study has a similar age to the “offspring” group and the “unrelated family” group of Arai. These two inflammation test scores effect the prediction algorithm to predict a worse aging outcome for the subject than the “offspring” or “unrelated family” groups of Arai at baseline.

CD38 = molecular target: T1, CD38 (Homo sapiens, UniProt P28907); settings: CD38 substrate; cited from earlier work
T1 sequence (P28907 1-300): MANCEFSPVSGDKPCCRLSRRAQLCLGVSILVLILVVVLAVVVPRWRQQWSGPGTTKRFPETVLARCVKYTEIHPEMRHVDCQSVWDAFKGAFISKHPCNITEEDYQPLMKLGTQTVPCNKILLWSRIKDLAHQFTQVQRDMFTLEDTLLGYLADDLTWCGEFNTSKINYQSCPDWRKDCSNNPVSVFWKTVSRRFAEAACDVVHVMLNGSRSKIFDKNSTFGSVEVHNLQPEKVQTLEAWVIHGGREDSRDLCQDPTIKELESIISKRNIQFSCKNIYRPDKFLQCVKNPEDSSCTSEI

C-Reactive Protein = assay: LabCor monthly serum marker testing: C-Reactive Protein; type: in vivo, human; settings: for C-Reactive Protein: serum, person, oral twice daily, baseline 2.77
Method: The amounts of each composition were set so that by the subject drinking the full 500 mL a final dosage approximately 1.19×10^−4 moles NMN/kg body weight per dose, […] through drinking the 500 mL solution. […]
as §4, §5

CMV IgG = assay: LabCor monthly serum marker testing: CMV IgG; type: in vivo, human; settings: person, oral twice daily
Method: as §1
Typical final concentrations of NMN taken by subject were 3.5 grams in 500 mL H2O, betaine were 3 grams in 500 mL H2O, H2O2 were (2 drops of 35% concentration in 500 mL H2O), and NaSH were (drops of 2 at 66 uM per drop concentration in 500 mL H2O).
as §2, §3, §4, §5

[6] = test system: Tumor Necrosis Factor-Alpha; assay: LabCor monthly serum marker testing: Tumor Necrosis Factor-Alpha; type: in vivo, human; settings: person, oral twice daily, baseline 1.1
Method: The amounts of each composition were set so that by the […] given to the subject through drinking the 500 mL solution. […]
as §4, §5

[7] = NMN given to mice; cited from earlier work
[8] = study month 1: NMN alone, 1st month
[9] = study month 2: NMN alone, 2nd month
[10] = study month 3: NMN alone, 3rd month

Sirt1, sequence (Q96EB6 whole entry): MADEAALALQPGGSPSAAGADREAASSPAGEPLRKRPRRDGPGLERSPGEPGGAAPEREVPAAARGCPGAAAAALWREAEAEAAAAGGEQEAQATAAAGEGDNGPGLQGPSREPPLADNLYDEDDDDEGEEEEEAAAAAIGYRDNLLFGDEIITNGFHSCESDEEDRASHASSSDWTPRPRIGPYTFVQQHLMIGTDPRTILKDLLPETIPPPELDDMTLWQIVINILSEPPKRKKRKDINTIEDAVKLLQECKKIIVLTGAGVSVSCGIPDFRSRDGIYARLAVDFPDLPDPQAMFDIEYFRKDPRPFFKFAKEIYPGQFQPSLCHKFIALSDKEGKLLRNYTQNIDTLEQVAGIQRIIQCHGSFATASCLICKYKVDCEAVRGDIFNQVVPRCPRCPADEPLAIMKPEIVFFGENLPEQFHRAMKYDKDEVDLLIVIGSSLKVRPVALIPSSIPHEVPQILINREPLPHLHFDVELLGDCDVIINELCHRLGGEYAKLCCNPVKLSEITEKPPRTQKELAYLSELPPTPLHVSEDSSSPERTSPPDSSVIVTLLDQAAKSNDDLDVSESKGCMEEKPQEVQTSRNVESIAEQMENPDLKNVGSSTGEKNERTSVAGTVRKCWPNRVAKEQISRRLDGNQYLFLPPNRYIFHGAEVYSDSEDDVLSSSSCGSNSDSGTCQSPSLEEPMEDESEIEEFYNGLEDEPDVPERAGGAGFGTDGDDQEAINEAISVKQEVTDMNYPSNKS
PARP-1, sequence (P09874 whole entry): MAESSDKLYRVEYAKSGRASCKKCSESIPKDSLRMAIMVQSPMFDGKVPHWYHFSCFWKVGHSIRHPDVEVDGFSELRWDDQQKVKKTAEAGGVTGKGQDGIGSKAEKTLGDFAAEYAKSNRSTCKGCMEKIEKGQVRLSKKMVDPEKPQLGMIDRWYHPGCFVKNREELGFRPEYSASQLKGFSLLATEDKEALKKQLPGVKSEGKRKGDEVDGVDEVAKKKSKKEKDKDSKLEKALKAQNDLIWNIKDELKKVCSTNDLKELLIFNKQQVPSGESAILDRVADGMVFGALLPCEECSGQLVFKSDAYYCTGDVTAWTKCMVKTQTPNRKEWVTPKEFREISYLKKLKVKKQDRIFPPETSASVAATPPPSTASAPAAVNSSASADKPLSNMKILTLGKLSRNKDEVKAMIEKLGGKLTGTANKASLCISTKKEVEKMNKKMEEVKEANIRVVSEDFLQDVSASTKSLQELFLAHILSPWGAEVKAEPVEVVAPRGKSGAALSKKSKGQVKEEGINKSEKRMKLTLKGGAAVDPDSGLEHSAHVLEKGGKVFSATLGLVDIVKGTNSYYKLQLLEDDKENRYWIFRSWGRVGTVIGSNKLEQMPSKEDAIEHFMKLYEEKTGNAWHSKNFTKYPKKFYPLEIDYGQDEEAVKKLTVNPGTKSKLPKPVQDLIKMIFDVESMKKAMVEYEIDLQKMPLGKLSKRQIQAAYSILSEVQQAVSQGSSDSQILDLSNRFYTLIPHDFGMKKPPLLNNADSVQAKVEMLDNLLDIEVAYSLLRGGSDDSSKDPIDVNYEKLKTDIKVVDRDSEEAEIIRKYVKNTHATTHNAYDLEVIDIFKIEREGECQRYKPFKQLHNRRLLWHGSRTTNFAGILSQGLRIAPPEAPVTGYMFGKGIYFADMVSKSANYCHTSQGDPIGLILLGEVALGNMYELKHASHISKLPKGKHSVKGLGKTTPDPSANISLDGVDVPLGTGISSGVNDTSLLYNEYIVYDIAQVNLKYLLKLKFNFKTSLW

In the case of `S` [H2S, hydrogen sulfide], the half-life ([1]; under in vivo conditions) is given as “between seconds and minutes”.

For `NC(=O)c1ccc[n+]([C@@H]2O[C@H](COP(=O)([O-])OP(=O)(O)OC[C@H]3O[C@@H](n4cnc5c(N)ncnc54)[C@H](O)[C@@H]3O)[C@@H](O)[C@H]2O)c1` [NAD+, nicotinamide adenine dinucleotide], the Km (PARP-1; PARP-1, substrate NAD+) is listed as 20 to 60 µM, the “Km of PARP-1 lower than Sirtuin-1” value (PARP-1; PARP-1 compared to Sirt1) is listed as 5 fold and the “absorption through the digestive system” value ([2]; in vivo) is listed as “not absorbed well”. The Km (Sirtuins) was 100 to 300 µM.

In the case of `S` [NaHS, sodium hydrosulfide], the “time to increase of H2S concentration” value ([1]; H2S donors) is listed as “within seconds to minutes”.

In the case of `NC(=O)c1ccc[n+]([C@@H]2O[C@H](CO)[C@@H](O)[C@H]2O)c1` [NR, nicotinamide riboside], the reaching muscle ([2]; orally delivered) is listed as “largely not reach muscle”.

For `C[S+](CC[C@H](N)C(=O)O)C[C@H]1O[C@@H](n2cnc3c(N)ncnc32)[C@H](O)[C@@H]1O` (stereo partly drawn) [SAM, S-5′-adenosyl-L-methionine], the “fraction that gets into the body when ingested” value [3] is given as “about 2%”.

In the case of `OO` [H2O2, hydrogen peroxide], the “extracellular H2O2 inhibition of Sirt1” value (Sirt1; extracellular H2O2) is given as 1 µmol, the “extracellular concentration that inhibits Sirt1” value (Sirt1; oxidizing critical cysteine residues in the Sirtuin active center) is given as 1 µM and the “fraction absorbed by the gut” value [4] is given as about 50%. For the same molecule, the degradation rate [5] was “about 10 %/year”.

In the case of `NC(=O)c1ccc[n+]([C@@H]2O[C@H](COP(=O)([O-])O)[C@@H](O)[C@H]2O)c1` [NMN, Nicotinamide mononucleotide], the “Interleukin-6 Serum” value (Interleukin-6) is reported as 0.9 pg/mL, the “Inflammation Score” value (Inflammation Score; [8]) is reported as 8.55 and the “Inflammation Score” value (Inflammation Score; [9]) is reported as 2.23. The “Inflammation Score” value (Inflammation Score; [10]) was 2.53, the “kcat relative to that of NAD+” value (CD38) was 5 fold and the CRP (C-Reactive Protein; after two months of treatment with NMN, subject) was 0.43 mg/L. For the same molecule, the “C-Reactive Protein” value (C-Reactive Protein; [9]) was 0.43 mg/L, the “C-Reactive Protein” value (C-Reactive Protein; [10]) was 0.53 mg/L and the “CMV IgG” value (CMV IgG; [8]) was 0. For the same molecule, the “CMV IgG” value (CMV IgG; [9]) was 0, the “CMV IgG” value (CMV IgG; [10]) was 0 and the “Tumor Necrosis Factor-Alpha” value [6, 8] was 0.9 pg/mL. For the same molecule, the “Tumor Necrosis Factor-Alpha” value [6, 9] was 1.1 pg/mL, the “Tumor Necrosis Factor-Alpha” value [6, 10] was 1.1 pg/mL and the “time to create NAD+ out of the NMN” value [7] was 15 min.

Reference: US20220023323A1, “RESETTING BIOLOGICAL PATHWAYS FOR DEFENDING AGAINST AND REPAIRING DETERIORATION FROM HUMAN AGING” (priority 2015, published 2022)
